In the supplement of paper PMC8253809:

Legend:
DIPGX29 [1] = H3.3 K27M diffuse intrinsic pontine glioma line; assay: maximal growth inhibition (yFin) relative to DMSO / staurosporine; higher = more efficacious
Method in brief: (§1)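 Compounds were delivered by pin tool as a 10-point threefold dilution series with a mean top concentration of 35 μM, in triplicate, to patient-derived pHGG/DIPG cell lines and astrocyte controls growing on 1% Geltrex-coated 384-well plates. Incubation lasted 7 days, or 3 days for iAstro, at 37 °C with 5% CO2. EC50 and maximal response (yFin) come from the three- or four-parameter log-logistic fit with the lowest AICc, applied to pooled, log2-transformed CellTiter-Glo luminescence normalised per plate to % activity between solvent (negative) and positive control wells.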

HGGX6 [2] = H3.3 G34R paediatric high-grade glioma line; assay: as above
Method in brief: as §1

DIPGX37 [3] = H3.3 K27M diffuse intrinsic pontine glioma line; assay: as above
Method in brief: as §1

HGGX39 [4] = paediatric high-grade glioma line; assay: as above
Method in brief: as §1

DIPGX29 [5] = assay: EC50 (inflection of fitted growth-inhibition curve) (log10 M)
Method in brief: as §1

HGGX6 [6] = assay: as above
Method in brief: as §1

DIPGX37 [7] = assay: as above
Method in brief: as §1

HGGX39 [8] = assay: as above
Method in brief: as §1

DIPGX29 [9] = assay: area under dose-response curve of % growth inhibition (log2 RLU vs DMSO / staurosporine), 1e-11 to 1e-4 M (% x log10 M); higher = more growth inhibition
Method in brief: (§2)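 Area under the curve was derived with the trapezoid rule from a fitted log-logistic curve, switching to a smoothing spline if the sigmoid fit failed. It rested on per-plate % activity between solvent and positive controls, calculated from log2-transformed CellTiter-Glo luminescence after 7 days of exposure (3 days for iAstro) at 37 °C, 5% CO2. Patient-derived pHGG/DIPG lines and astrocytes on 1% Geltrex-coated 384-well plates received a 10-point threefold dilution series, mean top concentration 35 μM, in triplicate.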

HGGX6 [10] = assay: as above
Method in brief: as §2

DIPGX37 [11] = assay: as above
Method in brief: as §2

HGGX39 [12] = assay: as above
Method in brief: as §2

Structure (SMILES)	maximal growth inhibition (DIPGX29 [1]) [%]	maximal growth inhibition (HGGX6 [2]) [%]	maximal growth inhibition (DIPGX37 [3]) [%]	maximal growth inhibition (HGGX39 [4]) [%]	EC50 (log10 M) (DIPGX29 [5])	EC50 (log10 M) (HGGX6 [6])	EC50 (log10 M) (DIPGX37 [7])	EC50 (log10 M) (HGGX39 [8])	area under dose-response curve (DIPGX29 [9])	area under dose-response curve (HGGX6 [10])	area under dose-response curve (DIPGX37 [11])	area under dose-response curve (HGGX39 [12])
Cc1c(CN2CCC(Nc3ncnc4sc(CC(F)(F)F)cc34)CC2)ccc2c1cc(C#N)n2Cc1cn[nH]c1 [MI-503]	74	71.9	72.1	74.2	-4.9	-4.9	-4.98	-5.14	92.6	83.9	70.7	84.8
Clc1ccc(COC(Cn2ccnc2)c2ccc(Cl)cc2Cl)c(Cl)c1 (configuration not stated) [MICONAZOLE]	45.9	41.5	61.9	42.1	-4.89	-4.87	-4.79	-4.94	46.5	35.5	48.6	39.2
CO[C@@]12[C@H](COC(N)=O)C3=C(C(=O)C(C)=C(N)C3=O)N1C[C@@H]1N[C@@H]12 [MITOMYCIN C]	62.3	66.2	73	69.7	-4.78	-4.76	-4.87	-4.78	78	75.4	95.2	91.5
COc1c(C)c2c(c(O)c1C/C=C(\C)CCC(=O)OCCN1CCOCC1)C(=O)OC2 [MYCOPHENOLATE MOFETIL]	24.8	20	30.5	24.4	-5.33	-5.49	-5.33	-5.61	36.4	30.4	41.2	39.6
O=C(N/N=C/c1ccc([N+](=O)[O-])o1)c1ccc(O)cc1 [NIFUROXAZIDE]	81.1	74.2	81.6	49.3	-4.78	-4.77	-4.75	-4.81	73.5	56.6	78.2	39.4
CCCCCCCCOc1ccccc1C(=O)Nc1ccc(C(=O)OCC[N+](C)(CC)CC)cc1 [OTILONIUM]	22.4	69.5	26.4	77.5	-4.75	-4.88	-4.86	-4.96	16.8	61.2	22.7	74.2
CCN(CC)CCOCCOC(=O)C(CC)(CC)c1ccccc1 [OXELADIN]	25.1	28.2	34.4	64.4	-4.79	-4.83	-4.88	-4.84	19.7	28.1	35.4	59.1
CN(C(=O)CN(CCO)CC(=O)N(C)C(C)(C)Cc1ccccc1)C(C)(C)Cc1ccccc1 [OXETHAZAINE]	77.7	47.3	82.1	88.2	-4.81	-4.82	-4.8	-4.81	63	38.4	65.5	71.1
N=C(N)c1ccc(OCCCCCOc2ccc(C(=N)N)cc2)cc1 [PENTAMIDINE]	38.4	33.1	31.7	32.4	-5.15	-5.4	-5.08	-6.05	55.6	45.3	50	66.5
COc1cc2nc(N3CCN(C(=O)c4ccco4)CC3)nc(N)c2cc1OC [PRAZOSIN]	75.3	75	75.4	74.7	-4.88	-5.03	-4.92	-4.9	66.6	76.9	75.3	66.9
COc1cc(NC(C)CCCN)c2ncccc2c1 (configuration not stated) [PRIMAQUINE]	72.2	78	72.9	75.8	-5.69	-5.38	-5.5	-5.5	131	107	116	113
NCCOc1cc(C(=O)Nc2cc(OCCN)c3ccccc3n2)nc(C(=O)Nc2cc(OCCN)c3ccccc3n2)c1 [PYRIDOSTATIN]	61	56.9	31.7	59.6	-5.01	-5.03	-5	-4.99	74	82.2	54	58.1
[O-][n+]1ccccc1[S-].[O-][n+]1ccccc1[S-].[Zn+2] [PYRITHIONE ZINC]	82.5	75.7	93.1	83.5	-5.6	-5.55	-5.23	-5.61	130	116	112	135
CCN(CC)CCCC(C)Nc1c2ccc(Cl)cc2nc2ccc(OC)cc12 (configuration not stated) [QUINACRINE]	74.8	74.3	72.4	74.3	-4.79	-4.97	-4.78	-4.75	79.9	73.7	56	55.7
O=C(c1ccc(OCCN2CCCCC2)cc1)c1c(-c2ccc(O)cc2)sc2cc(O)ccc12 [RALOXIFENE]	68.3	73.2	73.5	73.2	-4.93	-4.88	-4.93	-4.93	63.5	64.5	68.2	67.7
CNC(=O)c1cc(Oc2ccc(NC(=O)Nc3ccc(Cl)c(C(F)(F)F)c3)c(F)c2)ccn1 [REGORAFENIB]	37.6	38	43.5	33.2	-4.87	-5.33	-5.37	-5.33	39.5	70.8	62.5	55.2
